IC50 data for 13 compounds are collected here from ChEMBL document CHEMBL1127174, “Inhibition of cartilage breakdown by isothiazolones” (Bioorg Med Chem Lett, 1993).

Broadly, the IC50 is the midpoint of a concentration-inhibition curve. Low readings indicate higher potency, high ones lower potency.

Where only a bound is given, the exact number is not on record here.

The assay is filed under the species Bos taurus. Briefly: In vitro ability to inhibit cartilage breakdown by using 1L-1beta stimulated bovine nasal cartilage assay. The assay is classed as functional.
Consider `O=c1c2cccnc2sn1-c1ccc(Cl)cc1`, for which it took 3.7 µM to reach half-maximal inhibition (IC50).
In turn, `COc1ccc(-n2sc3ccccc3c2=O)cc1` displayed an IC50 greater than 30 µM.
The value for `Nc1ccccc1C(=O)Nc1ccccc1` was greater than 30 µM; that for `O=c1c2ccccc2sn1-c1ccccc1` was 3 µM; that for `COc1ccc(-n2sc3ncccc3c2=O)cc1` was 13.5 µM.
The value for `O=c1c2ccccc2sn1-c1ccc(Cl)cc1` was 3.6 µM; that for `O=c1ccsn1-c1ccccc1` was greater than 30 µM.
In turn, `CNC(=O)C(Cc1ccc(OC)cc1)NC(=O)[C@H](CC(C)C)[C@H](C)C(=O)NO` (single isomer, unassigned) yielded an IC50 of 3 µM.
The value for `O=c1c2ccccc2[se]n1-c1ccccc1` [EBSELEN] was 13 µM; that for `COc1ccc2c(c1)c(CC(=O)O)c(C)n2C(=O)c1ccc(Cl)cc1` [INDOMETHACIN] was greater than 30 µM.
With `COc1ccc2cc([C@H](C)C(=O)O)ccc2c1` [NAPROXEN] the figure was greater than 30 µM; with `O=C(Nc1ccccc1)c1ccccc1O` [SALICYLANILIDE], greater than 30 µM.
Compound `CN(C)[C@@H]1C(O)=C(C(N)=O)C(=O)[C@@]2(O)C(O)=C3C(=O)c4c(O)cccc4[C@@](C)(O)[C@H]3C[C@@H]12` [TETRACYCLINE] returned an IC50 greater than 30 µM.
